Experiments:
[1] = tested on: pinch skin graft from male DBA/2 donors transplanted to male BALB/c recipients; experiment: survival time of pinch skin graft; type: in vivo, mouse (DBA/2 donors; conditions: intraperitoneally; days to rejection
Procedure: (§1) Immunosuppressive activity was evaluated in an in vitro standard pharmacological test procedure to measure lymphocyte proliferation (LAF) and in two in vivo standard pharmacological test procedures. The first in vivo procedure was a popliteal lymph node (PLN) test procedure which measured the effect of compounds of this invention on a mixed lymphocyte reaction and the second in vivo procedure evaluated the survival time of a pinch skin graft.
The second in vivo test procedure is designed to determine the survival time of pinch skin graft from male DBA/2 donors transplanted to male BALB/c recipients. The method is adapted from Billingham R. E. and Medawar P. B., J. Exp. Biol. 28:385-402, (1951). Briefly, a pinch skin graft from the donor is grafted on the dorsum of the recipient as a homograft, and an autograft is used as control in the same region. […] Untreated recipients serve as rejection control. The graft is monitored daily and observations are recorded until the graft becomes dry and forms a blackened scab. This is considered as the rejection day. The mean graft survival time (number of days±S.D.) of the drug treatment group is compared with the control group.

[2] = tested on: mixed lymphocyte reaction in popliteal lymph node; experiment: popliteal lymph node (PLN) test procedure, in vivo mixed lymphocyte reaction; parameters: species or system mouse (BALB/c donors, C3H mice recipients); conditions: for PLN (ratio): p.o. daily Day 0 to Day 4, calculation described in b30 (formula not shown)
Procedure: as §1
A mixed lymphocyte reaction (MLR) occurs when lymphoid cells from genetically distinct animals are combined in tissue culture. Each stimulates the other to undergo blast transformation which results in increased DNA synthesis that can be quantified by the incorporation of tritiated thymidine. Since stimulating a MLR is a function of disparity at Major Histocompatibility antigens, an in vivo popliteal lymph node (PLN) test procedure closely correlates to host vs. graft disease. Briefly, irradiated spleen cells from BALB/c donors are injected into the right hind foot pad of recipient C3H mice. The drug is given daily, p.o. from Day 0 to Day 4. On Day 3 and Day 4, tritiated thymidine is given i.p., b.i.d. On Day 5, the hind popliteal lymph nodes are removed and dissolved, and radioactivity counted. The corresponding left PLN serves as the control for the PLN from the injected hind foot. Percent suppression is calculated using the non-drug treated animals as allogenic control. […] Results are expressed by the following ratio: [formula]

[3] = tested on: thymocyte proliferation (cells from the thymus of normal BALB/c mice, PHA and IL-1); experiment: comitogen-induced thymocyte proliferation procedure (LAF); type: cell-based; conditions: for LAF (ratio): calculation described in b29 (formula not shown)
Procedure: as §1
Briefly, cells from the thymus of normal BALB/c mice are cultured for 72 hours with PHA and IL-1 and pulsed with tritiated thymidine during the last six hours. […] Cells are harvested and incorporated; radioactivity is determined. Inhibition of lymphoproliferation is assessed in percent change in counts per minute from non-drug treated controls. The results are expressed by the following ratio, or as the IC50, expressed in nM. [formula]

[4] = tested on: organ grafts in histoincompatible rodents; conditions: cited from earlier work
[5] = tested on: formation of IgE-like antibodies; conditions: cited from earlier work
Candida albicans = conditions: particularly against Candida albicans, both in vitro and in vivo; cited from earlier work
[6] = tested on: experimental allergic encephalomyelitis model, a model for multiple sclerosis; conditions: in vivo; cited from earlier work

| Structure (SMILES) | Skin Graft (mean graft survival time) [1] | PLN (ratio) [2] | LAF (ratio) [3] | survival time of organ grafts [4] | inhibition of the formation of IgE-like antibodies [5] | Percent suppression in PLN ([2]; 6 mg/kg, p.o., vs non-drug treated allogenic control) [%] | antifungal activity (Candida albicans) | effect in experimental allergic encephalomyelitis model [6] | IC50 ([3]; Mus musculus, Thymocyte, read-out: LAF IC50) [nM] |
| --- | --- | --- | --- | --- | --- | --- | --- | --- | --- |
| CO[C@H]1C[C@@H]2CC[C@@H](C)[C@@](O)(O2)C(=O)C(=O)N2CCCC[C@H]2C(=O)O[C@H]([C@H](C)C[C@@H]2CC[C@@H](OC(=O)C[C@H](NC(=O)OCc3ccccc3)C(=O)O[C@@H]3CC[C@@H](C[C@@H](C)[C@@H]4CC(=O)[C@H](C)/C=C(\C)[C@@H](O)[C@@H](OC)C(=O)[C@H](C)C[C@H](C)/C=C/C=C/C=C(\C)[C@@H](OC)C[C@@H]5CC[C@@H](C)[C@@](O)(O5)C(=O)C(=O)N5CCCC[C@H]5C(=O)O4)C[C@H]3OC)[C@H](OC)C2)CC(=O)[C@H](C)/C=C(\C)[C@@H](O)[C@@H](OC)C(=O)[C@H](C)C[C@H](C)/C=C/C=C/C=C/1C [Example 2, Rapamycin 42-42'-diester with N-[(phenylmethoxycarbonyl)]-L-aspartic acid] | 10.7 ± 0.2 days ± SD | 0.45 | 0.32 |  |  |  |  |  |  |
| CO[C@H]1C[C@@H]2CC[C@@H](C)[C@@](O)(O2)C(=O)C(=O)N2CCCC[C@H]2C(=O)O[C@H]([C@H](C)C[C@@H]2CC[C@@H](O)[C@H](OC)C2)CC(=O)[C@H](C)/C=C(\C)[C@@H](O)[C@@H](OC)C(=O)[C@H](C)C[C@H](C)/C=C/C=C/C=C/1C [Rapamycin, rapamycin] | 12.0 ± 1.7 days ± SD |  |  | prolong survival time of organ grafts | effectively inhibited the formation of IgE-like antibodies | 86 | antifungal activity, particularly against Candida albicans, both in vitro and in vivo | effective | 8.7 |
| CO[C@H]1C[C@@H]2CC[C@@H](C)[C@@](O)(O2)C(=O)C(=O)N2CCCC[C@H]2C(=O)O[C@H]([C@H](C)C[C@@H]2CC[C@@H](OC(=O)CC[C@H](NC(=O)OCc3ccccc3)C(=O)O[C@@H]3CC[C@@H](C[C@@H](C)[C@@H]4CC(=O)[C@H](C)/C=C(\C)[C@@H](O)[C@@H](OC)C(=O)[C@H](C)C[C@H](C)/C=C/C=C/C=C(\C)[C@@H](OC)C[C@@H]5CC[C@@H](C)[C@@](O)(O5)C(=O)C(=O)N5CCCC[C@H]5C(=O)O4)C[C@H]3OC)[C@H](OC)C2)CC(=O)[C@H](C)/C=C(\C)[C@@H](O)[C@@H](OC)C(=O)[C@H](C)C[C@H](C)/C=C/C=C/C=C/1C [Example 1, Rapamycin-42,42'-diester with N-[(phenylmethoxy)carbonyl]-L-glutamic acid] | 10.2 ± 0.4 days ± SD | 0.45 | 0.53 |  |  |  |  |  |  |
